Reference: patent US20220111081A1, “COMPOSITION FOR TARGETING MEDULLARY THYROID CANCER” (University-Industry Foundation, Yonsei University, priority 2019, published 2022)

Key:
OR51E2 [1] = assay: CPM after ^11C-acetate treatment of OR51E2 knockout mice; assay type: in vivo, mouse; conditions: OR51E2 knockout mice compared with wild-type mice (FIG. 8D)
MZ-CRC-1 cell line [2] = assay: positron emission tomography (PET) of nude mice with MZ-CRC-1 tumor; assay type: in vivo, mouse; conditions: nude mice (BALB/c) with tumor from MZ-CRC-1 cell line (FIG. 11A)
Method: (§1) Nude mice (BALB/c) were administered with the MZ-CRC-1 cell line (4×10^6 cells/mouse) to induce tumorigenesis, and administered with ^11C-acetate, followed by performing positron emission tomography (PET).

MZ-CRC-1 cell line [3] = assay: serum calcitonin in nude mice with MZ-CRC-1 tumor after ^11C-acetate; assay type: in vivo, mouse; conditions: nude mice (BALB/c) with tumor from MZ-CRC-1 cell line (FIG. 11B)
Method: as §1

OR51E2 [4] = target: T1, OR51E2 (Homo sapiens, UniProt Q9H255); assay: ^11C-acetate positron emission and CPM in thyroid cancer cell lines; assay type: cell-based; design: OR51E1 (olfactory receptor 51E1) and OR51E2 were highly expressed in MZ-CRC1 and TT cell lines as medullary thyroid cancer cell lines; endogenous in cells; host or cells: MZ-CRC-1 and TT medullary thyroid cancer cell lines
T1 sequence (Q9H255 1-320): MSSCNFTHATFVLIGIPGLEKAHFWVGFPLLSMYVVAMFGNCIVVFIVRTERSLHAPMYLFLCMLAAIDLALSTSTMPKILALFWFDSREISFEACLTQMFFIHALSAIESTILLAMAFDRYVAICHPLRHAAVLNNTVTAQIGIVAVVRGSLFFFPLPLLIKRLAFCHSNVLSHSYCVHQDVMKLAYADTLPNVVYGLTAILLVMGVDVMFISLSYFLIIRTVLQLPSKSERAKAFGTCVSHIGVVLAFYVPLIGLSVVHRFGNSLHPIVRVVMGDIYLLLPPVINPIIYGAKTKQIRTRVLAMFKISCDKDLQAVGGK
Method: Thyroid cancer cell lines having different origins were treated with ^11C-acetate labeled with a radioactive isotope (20 μCi), and the degree of positron emission was identified. A control group was treated with F-18-fluorodeoxyglucose as the most commonly used radiopharmaceutical.

OR51E2 [5] = target: T1, OR51E2; assay: acetate binding competition experiment (CPM); design: OR51E1 (olfactory receptor 51E1) and OR51E2 were highly expressed in MZ-CRC1 and TT cell lines as medullary thyroid cancer cell lines; endogenous in cells; host or cells: MZ-CRC-1 and TT medullary thyroid cancer cell lines; conditions: MZ-CRC-1 and TT cell lines
Method: MZ-CRC-1 and TT cell lines as medullary thyroid cancer cell lines were treated with 100 μM cold acetate (acetate labeled with no radioactive isotope), and then treated with ^11C-acetate at concentrations of 2, 5, 10, 20, 40 and 60 μCi to measure CPM. In addition, MZ-CRC-1 and TT cell lines were treated with ^11C-acetate (20 μCi), and then treated with cold acetate at concentrations of 0, 20, 40, 80, 150 and 300 μM to measure CPM.

[6] = system: CREB (cAMP response element-binding protein); conditions: parafollicular C-cell line, acetate concentration series (FIG. 4B)
Method: (§2) Since OR51E1 and OR51E2 were highly expressed in the medullary thyroid cancer cell lines, MZ-CRC1 and TT cell lines as parafollicular C-cell lines were treated with acetate, nonanoic acid, propionate and azelaic acid as olfactory receptor ligands by 100 μM each to identify their influences.

intracellular cAMP = conditions: parafollicular C-cell line, acetate treatment (FIG. 4C)
Method: as §2

p42/44 MAPK = system: p42/44 MAPK
Method: as §2

OR51E2 [7] = target: T1, OR51E2
Method: (§3) Thereafter, the parafollicular C-cells were treated with acetate at each concentration and cultured, and then using a bromodeoxyuridine (BrdU) cell proliferation assay kit (Millipore, Mass.), the degree of BrdU binding was analyzed according to the manufacturer's protocol.

parafollicular C-cells = parafollicular C-cells treated with acetate at each concentration (FIG. 5A)
Method: as §3

OR51E2 [8] = target: OR51E2 (Mus musculus, UniProt Q8VBV9); conditions: wild-type mice, 30 minutes after injecting 100 μl of 99% acetate (FIG. 7B)
Chain of OR51E2 (Mus musculus, UniProt Q8VBV9) (Q8VBV9 whole entry): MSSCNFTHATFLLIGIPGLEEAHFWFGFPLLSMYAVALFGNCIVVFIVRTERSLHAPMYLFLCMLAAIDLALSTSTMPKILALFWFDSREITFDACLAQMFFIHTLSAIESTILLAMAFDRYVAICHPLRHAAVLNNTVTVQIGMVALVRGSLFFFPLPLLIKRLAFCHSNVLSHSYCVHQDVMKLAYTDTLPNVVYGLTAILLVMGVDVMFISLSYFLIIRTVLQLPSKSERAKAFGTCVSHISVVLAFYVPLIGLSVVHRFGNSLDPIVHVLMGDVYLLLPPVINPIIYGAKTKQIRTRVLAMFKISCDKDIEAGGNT
Method: (§4) C57/BL6 mice in which a green fluorescent protein (GFP) was inserted into the OR51E2 gene loci were purchased (Jackson Laboratory, USA) and reared under sterile conditions. Through a week of acclimatization, the mice were each sacrificed 30 minutes after injecting 100 μl of 99% acetate thereto to separate the thyroid gland and serum. The thyroid gland was stained with calcitonin and a GFP antibody, respectively, and the calcitonin concentration was measured in the separated serum.

OR51E2 [9] = conditions: OR51E2 knockout mice, 30 minutes after injecting 100 μl of 99% acetate (FIG. 7B)
Method: as §4

OR51E2 [10] = target: T1, OR51E2; conditions: MZ-CRC-1 cell line, 100 μM acetate, stained after 1, 5 and 30 minutes (FIG. 10)
Method: To identify whether the binding of acetate and OR51E2 can be utilized in the diagnosis of thyroid cancer, the MZ-CRC-1 cell line (parafollicular C-cells) was treated with 100 μM of acetate, and the cells were stained after 1, 5 and 30 minutes to identify OR51E2.

| SMILES | CPM (OR51E2 [1]) | PET tracer accumulation (MZ-CRC-1 cell line [2]) | calcitonin concentration in the serum (MZ-CRC-1 cell line [3]) | level of positron emission (OR51E2 [4]; medullary thyroid cancer cell line versus other thyroid cancer cell lines, 20 μCi (FIG. 8A)) | CPM (counter per minute) (OR51E2 [4]; medullary thyroid cancer cell line versus other thyroid cancer cell lines, 20 μCi (FIG. 8B)) | CPM (OR51E2 [4]; medullary thyroid cancer cell line with OR51E2 expression suppressed by siOR51E2 (FIG. 8C)) | CPM (OR51E2 [5]; first 100 μM cold acetate, then ^11C-acetate 2, 5, 10, 20, 40 and 60 μCi (FIG. 9A, 9B)) | phosphorylation level of CREB versus concentration [6] | level of intracellular cAMP (intracellular cAMP) | level of phosphorylation of p42/44 MAPK (p42/44 MAPK; MZ-CRC1 and TT cell lines, ligands 100 μM each (FIG. 4A)) | phosphorylation level of p42/44 MAPK versus concentration (p42/44 MAPK; parafollicular C-cell line, acetate concentration series (FIG. 4B)) | release of calcitonin (OR51E2 [7]; expression of OR51E2 suppressed with siRNA, then acetate treatment (FIG. 5C)) | intracellular expression level of calcitonin (OR51E2 [7]; parafollicular C-cell line, acetate treatment (FIG. 5B)) | cell proliferation (BrdU binding level) (parafollicular C-cells) | level of calcitonin in the serum (OR51E2 [8]) | level of calcitonin in the serum (OR51E2 [9]) | location of OR51E2 (staining) (OR51E2 [10]) | CPM (OR51E2 [5]; first ^11C-acetate 20 μCi, then cold acetate 0, 20, 40, 80, 150 and 300 μM (FIG. 9C, 9D)) |
| --- | --- | --- | --- | --- | --- | --- | --- | --- | --- | --- | --- | --- | --- | --- | --- | --- | --- | --- |
| C[11C](=O)O [^11C-acetate] | did not increase | accumulated in the tumor-producing sites | increased | high | highest | did not increase | increased as the treatment concentration increased | – | – | – | – | – | – | – | – | – | – | – |
| CC(=O)O [acetate] | – | – | – | – | – | – | – | increased in proportion to the acetate treatment concentration | increased | increased | increased in proportion to the acetate treatment concentration | not increased | increased | increased | increased | maintained almost constant | migrated into the cells | decreased as the treatment concentration increased |
